The target of one test is PIM1 (Homo sapiens, UniProt P11309). The test can be described thus: Pim1 ATP depletion assay. It counts as biochemical. Particulars: 20 μM ATP, 2.5 nM PIM1. How it is done: The activity of PIM1 is measured using a luciferase-luciferin based ATP detection reagent to quantify ATP depletion resulting from kinase-catalyzed phosphoryl transfer to a peptide substrate. Compounds to be tested are dissolved in 100% DMSO and directly distributed into white 384-well plates at 0.5 μl per well. To start the reaction, 10 μl of 5 nM Pim1 kinase and 80 μM BAD peptide (RSRHSSYPAGT-OH) in assay buffer (50 mM HEPES pH 7.5, 5 mM MgCl2, 1 mM DTT, 0.05% BSA) is added into each well. After 15 minutes, 10 μl of 40 μM ATP in assay buffer is added. Final assay concentrations are 2.5 nM PIM1, 20 μM ATP, 40 μM BAD peptide and 2.5% DMSO. The reaction is performed until approximately 50% of the ATP is depleted, then stopped with the addition of 20 μl KinaseGlo Plus (Promega Corporation) solution. The stopped reaction is incubated for 10 minutes and the remaining ATP detected via luminescence on the Victor2 (Perkin Elmer). […] IC50, the half maximal inhibitory concentration, represents the concentration of a test compound that is required for 50% inhibition of its target in vitro.

Another test deals with PIM2 (Homo sapiens, UniProt Q9P1W9). The test can be described thus: Pim2 ATP depletion assay. It counts as biochemical. Particulars: 4 μM ATP, 5 nM PIM2. As for the experimental part: The activity of PIM2 is measured using a luciferase-luciferin based ATP detection reagent to quantify ATP depletion resulting from kinase-catalyzed phosphoryl transfer to a peptide substrate. Compounds to be tested are dissolved in 100% DMSO and directly distributed into white 384-well plates at 0.5 μl per well. To start the reaction, 10 μl of 10 nM Pim2 kinase and 20 μM BAD peptide (RSRHSSYPAGT-OH) in assay buffer (50 mM HEPES pH 7.5, 5 mM MgCl2, 1 mM DTT, 0.05% BSA) is added into each well. After 15 minutes, 10 μl of 8 μM ATP in assay buffer is added. Final assay concentrations are 5 nM PIM2, 4 μM ATP, 10 μM BAD peptide and 2.5% DMSO. The reaction is performed until approximately 50% of the ATP is depleted, then stopped with the addition of 20 μl KinaseGlo Plus (Promega Corporation) solution. The stopped reaction is incubated for 10 minutes and the remaining ATP detected via luminescence on the Victor2 (Perkin Elmer).

A further test deals with PIM3 (Homo sapiens, UniProt Q86V86). The test can be described thus: Pim3 ATP depletion assay. It counts as biochemical. The conditions noted are these: 40 μM ATP. How it is done: The activity of PIM3 is measured using a luciferase-luciferin based ATP detection reagent to quantify ATP depletion resulting from kinase-catalyzed phosphoryl transfer to a peptide substrate. Compounds to be tested are dissolved in 100% DMSO and directly distributed into white 384-well plates at 0.5 μl per well. To start the reaction, 10 μl of 10 nM Pim3 kinase and 200 μM BAD peptide (RSRHSSYPAGT-OH) in assay buffer (50 mM HEPES pH 7.5, 5 mM MgCl2, 1 mM DTT, 0.05% BSA) is added into each well. After 15 minutes, 10 μl of 80 μM ATP in assay buffer is added. Final assay concentrations are 5 nM PIM1, 40 μM ATP, 100 μM BAD peptide and 2.5% DMSO. The reaction is performed until approximately 50% of the ATP is depleted, then stopped by the addition of 20 μl KinaseGlo Plus (Promega Corporation) solution. The stopped reaction is incubated for 10 minutes and the remaining ATP detected via luminescence on the Victor2 (Perkin Elmer).

A further test concerns KMS11 cells. The test can be described thus: Cell proliferation assay (CellTiter-Glo). The conditions noted are these: KMS-11, 72 h; KMS11 human myeloma cell line, 3 days. It counts as cell-based. How it is done: KMS11 (human myeloma cell line), were cultured in IMDM supplemented with 10% FBS, sodium pyruvate and antibiotics. Cells were plated in the same medium at a density of 2000 cells per well into 96 well tissue culture plates, with outside wells vacant, on the day of assay. MM1.s (human myeloma cell line), were cultured in RPMI1640 supplemented with 10% FBS, sodium pyruvate and antibiotics. Cells were plated in the same medium at a density of 5000 cells per well into 96 well tissue culture plates, with outside wells vacant, on the day of assay.
Test compounds supplied in DMSO were diluted into DMSO at 500 times the desired final concentrations before dilution into culture media to 2 times final concentrations. Equal volumes of 2× compounds were added to the cells in 96 well plates and incubated at 37° C. for 3 days.
After 3 days plates were equilibrated to room temperature and equal volume of CellTiter-Glow Reagent (Promega) was added to the culture wells. The plates were agitated briefly and luminescent signal was measured with luminometer. The percent inhibition of the signal seen in cells treated with DMSO alone vs. cells treated with control compound was calculated and used to determine EC50 values (i.e., the concentration of a test compound that is required to obtain 50% of the maximum effect in the cells) for tested compounds, as shown in Example 41.
A general note: In ATP-based viability assays light output follows the ATP content of the culture.

Sequence of PIM2 (Q9P1W9 whole entry): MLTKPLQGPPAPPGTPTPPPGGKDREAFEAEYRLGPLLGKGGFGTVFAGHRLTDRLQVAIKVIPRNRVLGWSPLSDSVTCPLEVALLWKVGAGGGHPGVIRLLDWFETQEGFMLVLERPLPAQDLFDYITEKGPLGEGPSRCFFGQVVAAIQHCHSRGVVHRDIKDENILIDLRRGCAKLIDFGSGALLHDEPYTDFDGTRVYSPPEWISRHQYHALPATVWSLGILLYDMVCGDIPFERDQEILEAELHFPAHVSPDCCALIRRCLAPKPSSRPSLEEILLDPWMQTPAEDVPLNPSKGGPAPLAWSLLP
Sequence of PIM1 (P11309 whole entry): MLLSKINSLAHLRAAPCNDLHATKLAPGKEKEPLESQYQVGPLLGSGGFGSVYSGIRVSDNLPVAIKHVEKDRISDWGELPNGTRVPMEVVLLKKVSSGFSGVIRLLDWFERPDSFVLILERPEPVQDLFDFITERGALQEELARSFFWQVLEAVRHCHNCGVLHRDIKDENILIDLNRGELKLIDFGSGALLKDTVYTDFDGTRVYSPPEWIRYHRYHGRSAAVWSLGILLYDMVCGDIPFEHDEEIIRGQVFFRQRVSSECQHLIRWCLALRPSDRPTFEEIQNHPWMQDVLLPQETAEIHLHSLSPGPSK

On to `Nc1ccc(-c2nccs2)nc1-c1cc2c(N3CCC[C@H](N)C3)c(F)cnc2cn1` [Example 1, (S)-2-(4-(3-aminopiperidin-1-yl)-3-fluoro-1,7-naphthyridin-6-yl)-6-(thiazol-2-yl)pyridin-3-amine], for which the half-maximal inhibitory concentration (IC50) at PIM1 stood at 2 nM; at PIM2, 40 nM; against PIM3, 7 nM. This compound also registered an EC50 with KMS11 cells of 870 nM.

For `CC(C)NC(=O)c1ccc(F)c(-c2ccc(N)c(-c3cc4c(N5CCC[C@H](N)C5)c(F)cnc4cn3)n2)c1` [Example 2, (S)-3-(5-amino-6-(4-(3-aminopiperidin-1-yl)-3-fluoro-1,7-naphthyridin-6-yl)pyridin-2-yl)-4-fluoro-N-isopropylbenzamide], the half-inhibitory concentration (IC50) against PIM1 was 18 nM; on PIM2, 258 nM; against PIM3, 37 nM.

Regarding `Cc1cc(-c2ccnc3cnc(-c4nc(-c5c(F)cccc5F)ccc4N)cc23)cc(N)n1` [Example 3, 4-(6-(3-amino-6-(2,6-difluorophenyl)pyridin-2-yl)-1,7-naphthyridin-4-yl)-6-methylpyridin-2-amine], the half-inhibitory concentration (IC50) turned out to be 15 nM at PIM1, 809 nM against PIM2 and 25 nM against PIM3.

As to `Cc1cc(-c2ccnc3cnc(-c4nc(-c5cc(C(=O)NC(C)C)ccc5F)ccc4N)cc23)cc(N)n1` [Example 4, 3-(5-amino-6-(4-(2-amino-6-methylpyridin-4-yl)-1,7-naphthyridin-6-yl)pyridin-2-yl)-4-fluoro-N-isopropylbenzamide], the IC50 against PIM1 was 24 nM; against PIM2, 350 nM; against PIM3, 40 nM.

Consider `Nc1ccc(-c2nccs2)nc1-c1cc2c(N3CCC[C@H](N)C3)ccnc2cn1` [Example 5, (S)-2-(4-(3-aminopiperidin-1-yl)-1,7-naphthyridin-6-yl)-6-(thiazol-2-yl)pyridin-3-amine], for which the IC50 at PIM1 was 1 nM; on PIM2 it was 9 nM; on PIM3, 4 nM. The EC50 in the test with KMS11 cells turned out to be 840 nM.

Take `Nc1cnc(-c2ccccc2F)nc1-c1cc2c(N3CCC[C@H](N)C3)ccnc2cn1` [Example 6, (S)-4-(4-(3-aminopiperidin-1-yl)-1,7-naphthyridin-6-yl)-2-(2-fluorophenyl)pyrimidin-5-amine]: the IC50 turned out to be 4 nM at PIM1, 59 nM against PIM2 and 3 nM against PIM3. In addition, in the test with KMS11 cells, it took 1800 nM to reach a half-maximal effect (EC50).

On to `Nc1ccc(-c2c(F)cccc2F)nc1-c1cc2c(N3CCC[C@@H](N)C3)ccnc2cn1` [Example 7, (R)-2-(4-(3-aminopiperidin-1-yl)-1,7-naphthyridin-6-yl)-6-(2,6-difluorophenyl)pyridin-3-amine], for which the 50% inhibitory concentration (IC50) stood at 5 nM on PIM1, 24 nM against PIM2 and 7 nM on PIM3. This compound yielded an EC50 in the test on KMS11 cells of 2800 nM.

Take `COc1cccc(-c2ccc(N)c(-c3cc4c(N5CCC[C@H](N)C5)ccnc4cn3)n2)n1` [Example 14, (S)-6-(4-(3-aminopiperidin-1-yl)-1,7-naphthyridin-6-yl)-6′-methoxy-2,2′-bipyridin-5-amine]: the figures for the concentration for half-maximal inhibition (IC50) against PIM1, against PIM2 and against PIM3 were 6 nM, 132 nM and 8 nM, respectively.

On to `Nc1ccc(-c2ccc(F)cc2F)nc1-c1cc2c(N3CCC[C@H](N)C3)ccnc2cn1` [Example 17, (S)-2-(4-(3-aminopiperidin-1-yl)-1,7-naphthyridin-6-yl)-6-(2,4-difluorophenyl)pyridin-3-amine], for which the results for the concentration for half-maximal inhibition (IC50) on PIM1, against PIM2 and against PIM3 were 4 nM, 151 nM and 13 nM, respectively.

`Nc1ccc(-c2cccc(S(N)(=O)=O)c2)nc1-c1cc2c(N3CCC[C@H](N)C3)ccnc2cn1` [Example 21, (S)-3-(5-amino-6-(4-(3-aminopiperidin-1-yl)-1,7-naphthyridin-6-yl)pyridin-2-yl)benzenesulfonamide]: the half-maximal inhibitory concentration (IC50) against PIM1 stood at 2 nM; at PIM2 it was 160 nM; at PIM3, 8 nM.

As to `CS(=O)(=O)c1cccc(-c2ccc(N)c(-c3cc4c(N5CCC[C@H](N)C5)ccnc4cn3)n2)c1` [Example 22, (S)-2-(4-(3-aminopiperidin-1-yl)-1,7-naphthyridin-6-yl)-6-(3-(methylsulfonyl)phenyl)pyridin-3-amine], the 50% inhibitory concentration (IC50) against PIM1 came out at 4 nM; against PIM2, 280 nM; against PIM3, 10 nM.

For `N[C@H]1CCCN(c2ccnc3ccc(-c4cccc(-c5c(F)cccc5F)n4)cc23)C1` [Example 26, (S)-1-(6-(6-(2,6-difluorophenyl)pyridin-2-yl)quinolin-4-yl)piperidin-3-amine], the half-maximal inhibitory concentration (IC50) was determined as 16 nM on PIM1, 331 nM against PIM2 and 26 nM on PIM3.

As to `N[C@H]1CCCN(c2ccnc3ccc(-c4nccc(-c5c(F)cccc5F)n4)cc23)C1` [Example 29], the IC50 on PIM1 amounted to 6 nM; at PIM2 it was 132 nM; at PIM3, 8 nM.

Take `N[C@H]1CCCN(c2ccnc3ccc(-c4nccc(-c5ccccc5F)n4)cc23)C1` [Example 30]: the half-maximal inhibitory concentration (IC50) is 8 nM against PIM1, 347 nM against PIM2 and 20 nM against PIM3.

In the case of `N[C@@H]1CN(c2ccnc3ccc(-c4cccc(-c5c(F)cccc5F)n4)cc23)CC[C@H]1F` [Example 32, (3R,4R)-1-(6-(6-(2,6-difluorophenyl)pyridin-2-yl)quinolin-4-yl)-4-fluoropiperidin-3-amine], the results for the IC50 against PIM1, against PIM2 and on PIM3 were 27 nM, 604 nM and 42 nM, respectively.

For the compound `N[C@@H]1CN(c2ccnc3ccc(-c4cccc(-c5nccs5)n4)cc23)CC[C@H]1F` [Example 33, (3R,4R)-4-fluoro-1-(6-(6-(thiazol-2-yl)pyridin-2-yl)quinolin-4-yl)piperidin-3-amine], the IC50 against PIM1 turned out to be 22 nM; against PIM2, 244 nM; against PIM3, 21 nM.

In the case of `C[C@@H]1C[C@H](N)CN(c2ccnc3ccc(-c4cccc(-c5c(F)cccc5F)n4)cc23)C1` [Example 34, (3S,5R)-1-(6-(6-(2,6-difluorophenyl)pyridin-2-yl)quinolin-4-yl)-5-methylpiperidin-3-amine], the half-inhibitory concentration (IC50) at PIM1 was found to be 2 nM; at PIM2, 33 nM; against PIM3 it was 7 nM.

Regarding `N[C@@H]1CN(c2ccnc3ccc(-c4cccc(-c5c(F)cccc5F)n4)cc23)CC[C@H]1O` [Example 35, (3R,4R)-3-amino-1-(6-(6-(2,6-difluorophenyl)pyridin-2-yl)quinolin-4-yl)piperidin-4-ol], the half-maximal inhibitory concentration (IC50) is 19 nM against PIM1, 373 nM at PIM2 and 21 nM at PIM3.

For `N[C@@H]1CN(c2ccnc3ccc(-c4cccc(-c5nccs5)n4)cc23)CC[C@H]1O` [Example 36, (3R,4R)-3-amino-1-(6-(6-(thiazol-2-yl)pyridin-2-yl)quinolin-4-yl)piperidin-4-ol], the IC50 against PIM1 was 9 nM; on PIM2, 75 nM; against PIM3 it was 9 nM.

As a reminder, the IC50 is the concentration that gives 50% inhibition. The low end stands for higher potency, the high end for lower potency. In general, EC50 refers to the concentration giving half of the maximal effect. High values mean a less potent agent, low ones a more potent agent.

Values taken from patent US8735424B2 (Novartis AG, priority 2008, dated 2014).
